Source: patent US9822147B2, “Methods of treating ophthalmic diseases using NPR-B agonists” (priority 2009, dated 2017)
Numbered stars: 1 amine (or outer) side, 2 acyl side, 3 side chain; on linkers, the order of the positions; unused ones are H or OH. Square brackets hold non-standard residues; d marks the D form. Peptide text beside a SMILES is read from it. * marks the point of attachment. Phe(4-Cl) = N[C@@H](Cc1ccc(Cl)cc1)C(=O)O; Pro(4R-NH2) = N[C@H]1CN[C@H](C(=O)O)C1; dOrn(Me2) = CN(C)CCC[C@@H](N)C(=O)O; Gly(cPent) = N[C@H](C(=O)O)C1CCCC1; X2 = O=C([C@H]1CCCN([*:1])C1)[*:2]; dDap(Me2) = CN(C)C[C@@H](N)C(=O)O; Hyp = O=C(O)[C@@H]1C[C@@H](O)CN1; 3Thi = N[C@@H](Cc1ccsc1)C(=O)O; NHcycloheptyl = C1CCCC(N*)CC1; NMeL = CN[C@@H](CC(C)C)C(=O)O; Nle = CCCC[C@H](N)C(=O)O; Octanoyl = CCCCCCCC(=O)*; Api = NC1(C(=O)O)CCNCC1; tBu = CC(C)(C)*

What follows are compounds tested against T1, NPR-B (Homo sapiens, UniProt P20594) (assay: NPR-B induced production of cyclic GMP in human glaucoma trabecular meshwork cells (GTM-3)). Conditions: group by EC50 and Emax (CNP = 100%); Table 4; read-out: Activity (group), NPR-B activation assayed with GTM-3 cells.
T1 construct: a functional assay using endogenously NPR-B expressing GTM-3 cells; endogenous in cells; host or cells: GTM-3 (human glaucoma trabecular meshwork cells)
T1 sequence (P20594 23-1047): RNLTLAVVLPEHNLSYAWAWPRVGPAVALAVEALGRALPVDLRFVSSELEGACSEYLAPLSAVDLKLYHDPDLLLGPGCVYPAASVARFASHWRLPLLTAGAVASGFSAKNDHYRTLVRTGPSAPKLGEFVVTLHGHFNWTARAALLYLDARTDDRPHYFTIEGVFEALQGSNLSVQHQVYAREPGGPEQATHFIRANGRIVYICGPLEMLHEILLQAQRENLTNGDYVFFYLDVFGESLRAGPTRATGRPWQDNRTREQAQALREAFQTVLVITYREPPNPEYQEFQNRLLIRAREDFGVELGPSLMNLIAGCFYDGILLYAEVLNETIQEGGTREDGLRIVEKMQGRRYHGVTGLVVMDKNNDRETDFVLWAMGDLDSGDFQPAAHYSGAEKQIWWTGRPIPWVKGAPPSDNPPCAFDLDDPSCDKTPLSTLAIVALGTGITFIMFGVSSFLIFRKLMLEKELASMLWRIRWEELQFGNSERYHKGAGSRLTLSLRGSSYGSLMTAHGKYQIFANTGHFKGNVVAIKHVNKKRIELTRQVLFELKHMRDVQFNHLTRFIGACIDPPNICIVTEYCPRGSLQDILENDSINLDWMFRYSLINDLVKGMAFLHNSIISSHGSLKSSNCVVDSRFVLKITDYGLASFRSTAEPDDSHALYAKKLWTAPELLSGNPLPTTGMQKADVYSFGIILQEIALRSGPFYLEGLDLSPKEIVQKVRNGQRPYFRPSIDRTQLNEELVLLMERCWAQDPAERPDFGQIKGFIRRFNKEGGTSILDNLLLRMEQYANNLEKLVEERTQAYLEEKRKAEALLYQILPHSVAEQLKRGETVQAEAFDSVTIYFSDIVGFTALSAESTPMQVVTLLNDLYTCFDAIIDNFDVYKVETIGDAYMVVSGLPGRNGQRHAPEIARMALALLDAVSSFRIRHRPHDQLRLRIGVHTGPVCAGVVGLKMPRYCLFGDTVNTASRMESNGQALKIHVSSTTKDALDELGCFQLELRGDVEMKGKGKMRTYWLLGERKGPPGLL
Format: cell-based

Row | EC50 | Compound
1 | < 1 µM | CCCCCCCC(=O)N1CCC[C@H](C(=O)N[C@@H](Cc2ccccc2)C(=O)N[C@H](CSC(C)(C)C)C(=O)N[C@@H](CC(C)C)C(=O)N2C[C@H](O)C[C@H]2C(=O)N(C)[C@@H](CC(C)C)C(=O)N[C@@H](CC(=O)O)C(=O)N[C@@H](CCCNC(=N)N)C(=O)N[C@H](C(N)=O)[C@@H](C)CC)C1 [JAL-1623, Occ-Sni-Phe-ctb-Leu-Hyp-Nml-Asp-Arg-Ile-NH2] (Octanoyl-[X2]F[dC](tBu)L[Hyp][NMeL]DRI-NH2)
2 | < 1 µM | CCCCCCCC(=O)N1CCC[C@H](C(=O)N[C@@H](Cc2ccccc2)C(=O)NC2(C(=O)N[C@@H](CC(C)C)C(=O)N3C[C@H](N)C[C@H]3C(=O)N(C)[C@@H](CC(C)C)C(=O)N[C@@H](CC(=O)O)C(=O)N3CCC[C@H]3C(=O)N[C@H](C(N)=O)[C@@H](C)CC)CCNCC2)C1 [JAL-1561, Occ-Sni-Phe-Apc-Leu-Tap-Nml-Asp-Pro-Ile-NH2] (Octanoyl-[X2]F[Api]L[Pro(4R-NH2)][NMeL]DPI-NH2)
3 | < 1 µM | CCCCCCCC(=O)N1CCC[C@H](C(=O)N[C@@H](Cc2ccccc2)C(=O)N[C@H](CN(C)C)C(=O)N[C@@H](CC(C)C)C(=O)N2C[C@H](N)C[C@H]2C(=O)N(C)[C@@H](CC(C)C)C(=O)N[C@H](C(=O)N[C@@H](CCCNC(=N)N)C(=O)N[C@H](C(N)=O)[C@@H](C)CC)C(C)C)C1 [JAL-1403, Occ-Sni-Phe-dap(Me2)-Leu-Tap-Nml-Val-Arg-Ile-NH2] (Octanoyl-[X2]F[dDap(Me2)]L[Pro(4R-NH2)][NMeL]VRI-NH2)
4 | < 1 µM | CCCCCCCC(=O)N1CCCC[C@@H]1C(=O)N[C@@H](Cc1ccccc1)C(=O)N[C@H](CCCNC(=N)N)C(=O)N[C@@H](CC(C)C)C(=O)N1C[C@H](O)C[C@H]1C(=O)N(C)[C@@H](CC(C)C)C(=O)N[C@@H](CC(=O)O)C(=O)N[C@@H](CCCNC(=N)N)C(=O)N[C@H](C(N)=O)[C@@H](C)CC [JAL-1087, Occ-pip-Phe-arg-Leu-Hyp-Nml-Asp-Arg-Ile-NH2] (HELM PEPTIDE1{[CCCCCCCC(=O)[*:2]].[O=C([C@H]1CCCCN1[*:1])[*:2]].F.[dR].L.[Hyp].[meL].D.R.I.[am]}$$$$V2.0)
5 | < 1 µM | CCCCCCCC(=O)N1CCC[C@H](C(=O)N[C@@H](Cc2ccccc2)C(=O)N[C@H](CC(C)C)C(=O)N[C@@H](CCCC)C(=O)N2C[C@H](O)C[C@H]2C(=O)N(C)[C@@H](CC(C)C)C(=O)N[C@@H](CC(=O)O)C(=O)N2CCC[C@H]2C(=O)NC2CCCCCC2)C1 [JAL-1657, Occ-Sni-Phe-leu-Nle-Hyp-Nml-Asp-Pro-Che] (Octanoyl-[X2]F[dL][Nle][Hyp][NMeL]DP-NHcycloheptyl)
6 | < 1 µM | CCCCCCCC(=O)N1CCC[C@H](C(=O)N[C@@H](Cc2ccsc2)C(=O)N[C@H](CC(C)C)C(=O)N[C@@H](CC(C)C)C(=O)N2C[C@H](O)C[C@H]2C(=O)N(C)[C@@H](CC(C)C)C(=O)N[C@@H](CC(=O)O)C(=O)N[C@@H](CCCNC(=N)N)C(=O)N[C@H](C(N)=O)[C@@H](C)CC)C1 [JAL-1620, Occ-Sni-Thk-leu-Leu-Hyp-Nml-Asp-Arg-Ile-NH2] (Octanoyl-[X2][3Thi][dL]L[Hyp][NMeL]DRI-NH2)
7 | < 1 µM | CCCCc1cnc(Nc2ccc(C(=O)N[C@@H](Cc3ccccc3)C(=O)N[C@H](CC(C)C)C(=O)N[C@@H](CC(C)C)C(=O)N3C[C@H](O)C[C@H]3C(=O)N(C)[C@@H](CC(C)C)C(=O)N[C@@H](CC(=O)O)C(=O)N[C@@H](CCCNC(=N)N)C(=O)N[C@H](C(N)=O)[C@@H](C)CC)cc2)s1 [JAL-1380, (AR-201-68)-Phe-leu-Leu-Hyp-Nml-Asp-Arg-Ile-NH2] (HELM PEPTIDE1{[CCCCc1cnc(Nc2ccc(C(=O)[*:2])cc2)s1].F.[dL].L.[Hyp].[meL].D.R.I.[am]}$$$$V2.0)
8 | < 1 µM | CCCCCCCC(=O)N[C@H](C)C(=O)N[C@@H](Cc1ccccc1)C(=O)N[C@H](CC(C)C)C(=O)N[C@@H](CC(C)C)C(=O)N1C[C@H](O)C[C@H]1C(=O)N(C)[C@@H](CC(C)C)C(=O)N[C@@H](CC(=O)O)C(=O)N[C@@H](CCCNC(=N)N)C(=O)NC1(C(N)=O)CCCCC1 [JAL-1358, Occ-ala-Phe-leu-Leu-Hyp-Nml-Asp-Arg-Egz-NH2] (HELM PEPTIDE1{[CCCCCCCC(=O)[*:2]].[dA].F.[dL].L.[Hyp].[meL].D.R.[O=C(C1(N[*:1])CCCCC1)[*:2]].[am]}$$$$V2.0)
9 | < 1 µM | CCCCCCCC(=O)N1CCC[C@H](C(=O)N[C@@H](Cc2ccc(Cl)cc2)C(=O)N[C@H](CC(C)C)C(=O)N[C@@H](CC(C)C)C(=O)N2C[C@H](O)C[C@H]2C(=O)N(C)[C@@H](CC(C)C)C(=O)N[C@@H](CC(=O)O)C(=O)N[C@@H](CCCNC(=N)N)C(=O)N[C@H](C(N)=O)[C@@H](C)CC)C1 [JAL-1493, Occ-Sni-Pcf-leu-Leu-Hyp-Nml-Asp-Arg-Ile-NH2] (Octanoyl-[X2][Phe(4-Cl)][dL]L[Hyp][NMeL]DRI-NH2)
10 | < 1 µM | CCCCCCCC(=O)N[C@@]1(C)CCN([C@@H](Cc2ccccc2)C(=O)N[C@H](CC(C)C)C(=O)N[C@@H](CC(C)C)C(=O)N2C[C@H](O)C[C@H]2C(=O)N(C)[C@@H](CC(C)C)C(=O)N[C@@H](CC(=O)O)C(=O)N[C@@H](CCCNC(=N)N)C(=O)N[C@H](C(N)=O)[C@@H](C)CC)C1=O [JAL-1774, (AR-314-102)-leu-Leu-Hyp-Nml-Asp-Arg-Ile-NH2]
11 | < 1 µM | CCCCCCCC(=O)N[C@H](C)C(=O)N[C@@H](Cc1ccccc1)C(=O)N[C@H](CCCN)C(=O)N[C@@H](CC(C)C)C(=O)N1C[C@H](O)C[C@H]1C(=O)N(C)[C@@H](CC(C)C)C(=O)N[C@@H](CC(=O)O)C(=O)N[C@@H](CCCNC(=N)N)C(=O)N[C@H](C(N)=O)[C@@H](C)CC [JAL-1061, Occ-ala-Phe-orn-Leu-Hyp-Nml-Asp-Arg-Ile-NH2] (HELM PEPTIDE1{[CCCCCCCC(=O)[*:2]].[dA].F.[NCCC[C@@H](N[*:1])C(=O)[*:2]].L.[Hyp].[meL].D.R.I.[am]}$$$$V2.0)
12 | < 1 µM | CCCCCCCC(=O)N1CCCC[C@@H]1C(=O)N[C@@H](Cc1ccccc1)C(=O)N[C@H](CCCNC(=N)N)C(=O)N[C@@H](CC(C)C)C(=O)N1CCC[C@H]1C(=O)N(C)[C@@H](CC(C)C)C(=O)N[C@@H](CC(=O)O)C(=O)N[C@@H](CCCNC(=N)N)C(=O)N[C@H](C(N)=O)[C@@H](C)CC [JAL-1078, Occ-pip-Phe-arg-Leu-Pro-Nml-Asp-Arg-Ile-NH2] (HELM PEPTIDE1{[CCCCCCCC(=O)[*:2]].[O=C([C@H]1CCCCN1[*:1])[*:2]].F.[dR].L.P.[meL].D.R.I.[am]}$$$$V2.0)
13 | < 1 µM | CCCCCCCC(=O)N1CCC[C@H](C(=O)N[C@@H](Cc2ccccc2)C(=O)N[C@H](CC(C)C)C(=O)N[C@@H](CC(C)C)C(=O)N2C[C@H](O)C[C@H]2C(=O)N[C@H](C(=O)N[C@@H](CC(=O)O)C(=O)N[C@@H](CCCNC(=N)N)C(=O)N[C@H](C(N)=O)[C@@H](C)CC)C2CCCC2)C1 [JAL-1626, Occ-Sni-Phe-leu-Leu-Hyp-Cpg-Asp-Arg-Ile-NH2] (Octanoyl-[X2]F[dL]L[Hyp][Gly(cPent)]DRI-NH2)
14 | < 1 µM | CCCCCCCC(=O)N[C@H](C)C(=O)N[C@@H](Cc1ccccc1)C(=O)N[C@H](CC(C)C)C(=O)N[C@@H](CC(C)C)C(=O)N1C[C@H](O)C[C@H]1C(=O)N(C)[C@@H](CC(C)C)C(=O)N[C@@H](CC(=O)O)C(=O)N[C@@H](CCCNC(=N)N)C(=O)NC(C)(CC(C)C)C(N)=O (stereo partly drawn) [JAL-1414, Occ-ala-Phe-leu-Leu-Hyp-Nml-Asp-Arg-Aml-NH2] (HELM PEPTIDE1{[CCCCCCCC(=O)[*:2]].[dA].F.[dL].L.[Hyp].[meL].D.R.[CC(C)CC(C)(N[*:1])C(=O)[*:2]].[am]}$$$$V2.0)
15 | < 1 µM | CCCCCCCC(=O)N[C@H](C)C(=O)N[C@@H](Cc1ccccc1)C(=O)NC(C(=O)N[C@@H](CC(C)C)C(=O)N1C[C@H](O)C[C@H]1C(=O)N(C)[C@@H](CC(C)C)C(=O)N[C@@H](CC(=O)O)C(=O)N[C@@H](CCCNC(=N)N)C(=O)N[C@H](C(N)=O)[C@@H](C)CC)C1CCCNC1 (stereo partly drawn) [JAL-1336, Occ-ala-Phe-Fhy-Leu-Hyp-Nml-Asp-Arg-Ile-NH2] (HELM PEPTIDE1{[CCCCCCCC(=O)[*:2]].[dA].F.[O=C(C(N[*:1])C1CCCNC1)[*:2]].L.[Hyp].[meL].D.R.I.[am]}$$$$V2.0)
16 | < 1 µM | CCCCCCCC(=O)N1CCC[C@H](C(=O)N[C@@H](Cc2ccccc2)C(=O)N[C@H](CCCN(C)C)C(=O)N[C@@H](CC(C)C)C(=O)N2C[C@H](O)C[C@H]2C(=O)N(C)[C@@H](CC(C)C)C(=O)N[C@@H](CC(=O)O)C(=O)N[C@@H](CCCNC(=N)N)C(=O)NC2CCCCCC2)C1 [JAL-1776, Occ-Sni-Phe-orn(Me2)-Leu-Hyp-Nml-Asp-Arg-Che] (Octanoyl-[X2]F[dOrn(Me2)]L[Hyp][NMeL]DR-NHcycloheptyl)
